pEC50, pIC50: −log10 of the molar value. Active and inactive are the calls of the source. The calls are words filed in the database; no cut-off is given here.
How the values were obtained:
Zika virus [1] = assay: Antiviral activity against ZIKV infected in African green monkey vero cells assessed as reduction in plaque formation incubated for 5 days by crystal violet based assay; format: functional, organism-based; details: for pEC50: 120 h
[2] = Cytotoxicity against african green monkey Vero cells incubated for 96 hrs; format: toxicity, cell-based; details: chlorocebus sabaeus
Genome polyprotein = Genome polyprotein (Zika virus, UniProt Q32ZE1); assay: Inhibition of ZIKV NS5 MTase activity assessed as methyltransferase reaction using capped RNA substrate pre-incubated for 2.5 hrs followed by enzyme addition measured after 1 hrs by luminometer
Genome polyprotein, sequence (Q32ZE1 2517-3419 limits assumed): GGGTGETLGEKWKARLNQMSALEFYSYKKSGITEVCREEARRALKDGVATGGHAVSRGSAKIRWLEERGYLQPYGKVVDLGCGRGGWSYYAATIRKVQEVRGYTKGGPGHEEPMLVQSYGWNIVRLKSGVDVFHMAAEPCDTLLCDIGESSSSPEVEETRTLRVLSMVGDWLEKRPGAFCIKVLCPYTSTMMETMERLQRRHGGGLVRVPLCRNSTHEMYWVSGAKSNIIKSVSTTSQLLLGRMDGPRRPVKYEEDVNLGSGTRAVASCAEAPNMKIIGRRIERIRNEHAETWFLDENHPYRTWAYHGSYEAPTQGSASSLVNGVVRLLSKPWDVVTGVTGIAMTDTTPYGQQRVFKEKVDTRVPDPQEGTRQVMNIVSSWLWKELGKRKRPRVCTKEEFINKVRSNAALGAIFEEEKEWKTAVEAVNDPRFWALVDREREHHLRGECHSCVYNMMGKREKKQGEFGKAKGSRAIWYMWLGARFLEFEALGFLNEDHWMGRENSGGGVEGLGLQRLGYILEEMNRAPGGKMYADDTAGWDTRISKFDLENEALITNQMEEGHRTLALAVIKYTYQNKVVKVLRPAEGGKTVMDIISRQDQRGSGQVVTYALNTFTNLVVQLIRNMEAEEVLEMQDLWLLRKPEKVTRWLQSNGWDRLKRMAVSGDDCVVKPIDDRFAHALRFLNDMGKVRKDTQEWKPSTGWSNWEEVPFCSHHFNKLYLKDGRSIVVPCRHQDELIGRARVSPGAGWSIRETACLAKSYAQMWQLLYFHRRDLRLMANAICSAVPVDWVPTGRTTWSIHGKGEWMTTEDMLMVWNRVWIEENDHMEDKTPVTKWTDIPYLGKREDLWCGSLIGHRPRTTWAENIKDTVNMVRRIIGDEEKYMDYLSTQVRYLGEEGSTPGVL

Zika virus [3] = assay: Antiviral activity against ZIKV infected in African green monkey Vero cells assessed as inhibition of ZIKV E protein at 10 uM incubated for 48 hrs by Western blot analysis relative to control; format: functional
[4] = Cytotoxicity against human Huh-7 cells incubated for 96 hrs; format: toxicity, cell-based
[5] = Cytotoxicity against human A549 cells incubated for 96 hrs; format: toxicity, cell-based
Zika virus [6] = assay: Antiviral activity against ZIKV infected in African green monkey vero cells incubated for 48 hrs by qRT-PCR analysis; format: functional, organism-based
Zika virus [7] = assay: Antiviral activity against ZIKV infected in human Huh-7 cells incubated for 48 hrs by qRT-PCR analysis; format: functional, organism-based; details: Huh-7, 48 h
Zika virus [8] = assay: Antiviral activity against ZIKV infected in human A549 cells incubated for 48 hrs by qRT-PCR; format: functional, organism-based; details: A549, 48 h
Zika virus [9] = assay: Antiviral activity against ZIKV infected in African green monkey Vero cells assessed as inhibition of ZIKV E protein at 0.4 uM incubated for 48 hrs by Western blot analysis relative to control; format: functional
Zika virus [10] = assay: Antiviral activity against ZIKV infected in African green monkey Vero cells incubated for 48 hrs by Western blot analysis relative to control; format: functional, organism-based
NS5 (Zika virus) = NS5 (Zika virus) (UniProt A0A143MHK7); assay: Inhibition of ZIKV RdRP
NS5 (Zika virus), sequence (A0A143MHK7 as listed by the source): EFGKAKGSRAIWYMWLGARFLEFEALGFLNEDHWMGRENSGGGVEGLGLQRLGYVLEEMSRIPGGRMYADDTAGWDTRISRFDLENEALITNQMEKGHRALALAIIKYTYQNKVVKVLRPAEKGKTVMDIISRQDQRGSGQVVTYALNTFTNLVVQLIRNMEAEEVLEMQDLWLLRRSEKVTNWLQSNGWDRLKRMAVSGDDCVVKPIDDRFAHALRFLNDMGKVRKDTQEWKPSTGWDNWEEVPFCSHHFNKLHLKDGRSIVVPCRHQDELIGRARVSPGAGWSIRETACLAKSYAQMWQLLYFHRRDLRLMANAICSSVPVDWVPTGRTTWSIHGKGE

[11] = target: Nonstructural protein 3 (Zika virus) (UniProt A0A024AXB9); assay: Inhibition of ZIK virus NS2B-NS3 protease
Nonstructural protein 3 (Zika virus), sequence (A0A024AXB9 as listed by the source): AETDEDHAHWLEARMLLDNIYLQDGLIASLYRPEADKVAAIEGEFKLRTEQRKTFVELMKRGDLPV

Zika virus [12] = assay: Antiviral activity against ZIKV infected in Vero cells assessed as virucidal effect at 10 uM pre-treated with virus for 2 hrs followed by infected with Vero cells for 2 hrs after washout transferred to normal medium measured after 48 hrs of post infection by qRT-PCR analysis based time of drug addition assay; format: functional, organism-based; details: time 4.0 hrs
Zika virus [13] = assay: Antiviral activity against ZIKV infected in Vero cells assessed as inhibition of viral entry at 10 uM Co-treated with virus with Vero cells followed by transferred into fresh medium measured upto 48 hrs by qRT-PCR analysis based time of drug addition assay; format: functional, organism-based; details: time 4.0 hrs
Zika virus [14] = assay: Antiviral activity against ZIKV infected in Vero cells assessed as viral infection at 10 uM pre-treated with Vero cells for 2 hrs followed by infected with virus cells for 2 hrs and measured upto 48 hrs in fresh medium by qRT-PCR analysis based time of drug addition assay; format: functional, organism-based; details: time 4.0 hrs
Zika virus [15] = assay: Antiviral activity against ZIKV infected in Vero cells assessed as viral RNA reduction at 10 uM treated immediately post infection incubated for 48 hrs by qRT-PCR analysis based time of drug addition assay; format: functional, organism-based
Zika virus [16] = assay: Antiviral activity against ZIKV infected in Vero cells assessed as late entry stage to late viral life cycle by measuring reduction in viral RNA reduction at 10 uM treated 1 to 2 hrs post infection incubated for 48 hrs by qRT-PCR analysis based time of drug addition assay; format: functional, organism-based
Zika virus [17] = assay: Antiviral activity against ZIKV infected in Vero cells assessed as late viral life cycle by measuring reduction in viral RNA reduction at 10 uM treated 3 to 6 hrs post infection incubated for 48 hrs by qRT-PCR analysis based time of drug addition assay; format: functional, organism-based
Zika virus [18] = assay: Antiviral activity against ZIKV infected in Vero cells assessed as late viral life cycle by measuring reduction in viral RNA reduction at 10 uM treated 8 hrs post infection incubated for 48 hrs by qRT-PCR analysis based time of drug addition assay; format: functional, organism-based
Zika virus [19] = assay: Antiviral activity against ZIKV infected in Vero cells assessed as late RNA synthesis to late viral life cycle by measuring reduction in viral RNA reduction at 10 uM treated 10 hrs post infection incubated for 48 hrs by qRT-PCR analysis based time of drug addition assay relative to 8 hrs post-infection; format: functional, organism-based
Zika virus [20] = assay: Antiviral activity against ZIKV infected in Vero cells assessed as late viral life cycle by measuring reduction in viral RNA reduction at 10 uM treated 12 hrs post infection incubated for 48 hrs by qRT-PCR analysis based time of drug addition assay; format: functional, organism-based

In the case of `C=C1CC[C@@H]2[C@](C)(CO)[C@H](O)CC[C@@]2(C)[C@@H]1C/C=C1/C(=O)OC[C@H]1O` [ANDROGRAPHOLIDE], the pEC50 (Zika virus [1]) was 4.41 and the CC50 at 96 h [2] was > 200 µM.

For `Nc1ncnc2c1ncn2[C@@H]1O[C@H](C[C@@H](N)CC[C@H](N)C(=O)O)[C@@H](O)[C@H]1O` [SINEFUNGIN], the pIC50 (Genome polyprotein) was 4.72.

Compound `NC(=O)c1ncn([C@@H]2O[C@H](CO)[C@@H](O)[C@H]2O)n1` [RIBAVIRIN] has an inhibition at 10 µM (Zika virus [3]) of 50%.

In the case of `C=C1CC[C@H]2[C@@](C)(CC/C(=N\O)[C@@]2(C)CO[Si](c2ccccc2)(c2ccccc2)C(C)(C)C)[C@@H]1/C=C/C1=CCOC1=O`, the pEC50 (Zika virus [1]) was 6.15, the CC50 at 96 h [2] was > 200 µM and the pIC50 (Genome polyprotein) was 4.85.

With `C=C1CC[C@H]2[C@@](C)(CC/C(=N\O)[C@@]2(C)COC(c2ccccc2)(c2ccccc2)c2ccccc2)[C@@H]1/C=C/C1=CCOC1=O` the pEC50 (Zika virus [1]) was 6.12, the CC50 at 96 h [2] was > 200 µM and the CC50 at 96 h [4] was > 200 µM. The CC50 at 96 h [5] was > 200 µM, the pEC50 (Zika virus [6]) was 6.32 and the pEC50 (Zika virus [7]) was 6.43. It also gave a pEC50 (Zika virus [8]) of 6.35, an inhibition at 0.4 µM (Zika virus [9]) of 100% and a pEC50 (Zika virus [10]) of 6.42. The inhibition (NS5 (Zika virus)) was “inactive”, the inhibition [11] was “inactive” and the Activity (Zika virus [12]) was “inactive”. The Activity (Zika virus [13]) was “inactive”, the Activity (Zika virus [14]) was “inactive” and the Activity (Zika virus [15]) was “Active”. The Activity (Zika virus [16]) was “Active”, the Activity (Zika virus [17]) was “Active” and the Activity (Zika virus [18]) was “Active”. The Activity (Zika virus [19]) was “inactive”, the Activity (Zika virus [20]) was “inactive” and the pIC50 (Genome polyprotein) was 4.74.

For `C=C1CC[C@@H]2[C@](C)(CO)[C@H](O)CC[C@@]2(C)[C@@H]1/C=C/C1=CCOC1=O`, the pEC50 (Zika virus [1]) was 4.51 and the CC50 at 96 h [2] was > 200 µM.

With `C=C1CC[C@H]2[C@@](C)(CCC(=O)[C@@]2(C)COC(c2ccccc2)(c2ccccc2)c2ccccc2)[C@@H]1/C=C/C1=CCOC1=O` the Activity (Zika virus [1]; time 5.0 day) was “inactive”.

In the case of `C=C1CC[C@H]2[C@@](C)(CC/C(=N\O)[C@@]2(C)COC(c2ccccc2)c2ccccc2)[C@@H]1/C=C/C1=CCOC1=O`, the pEC50 (Zika virus [1]) was 5.46 and the pIC50 (Genome polyprotein) was 3.74.

In the case of `C=C1CC[C@@H]2[C@](C)(COC(c3ccccc3)(c3ccccc3)c3ccccc3)[C@H](O)CC[C@@]2(C)[C@@H]1/C=C/C1=CCOC1=O`, the pEC50 (Zika virus [1]) was 5.21, the CC50 at 96 h [2] was > 200 µM and the pIC50 (Genome polyprotein) was 4.41.

From ChEMBL document CHEMBL5352408, “Discovery of dehydroandrographolide derivatives with C19 hindered ether as potent anti-ZIKV agents with inhibitory activities to MTase of ZIKV NS5” (Eur J Med Chem, 2022)
